Measurements taken from patent US8106055B2, “Substituted amide compounds” (Gruenenthal GmbH, priority 2007, dated 2012).

How the values were obtained:
human μ opiate receptor = target: T1, human μ opiate receptor (Homo sapiens, UniProt P35372); test: Affinity for the human μ opiate receptor ([3H]-naloxone displacement, CHO-K1 receptor membrane preparation, SPA); format: binding; conditions: test concentration of 1 μM
T1 construct: purchased PerkinElmer Life Sciences, Zaventem, Belgium RB-HOM; host or cells: CHO-K1 cells (membrane preparation)
Outline: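 Test compounds, 1 nmol/l [3H]-naloxone and CHO-K1 membranes bearing the human μ opiate receptor are combined with WGA-SPA beads. After 90 minutes at room temperature, plates are centrifuged and radioactivity counted. Specific-binding inhibition at 1 μmol/l is given in percent.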

[1] = target: T2, bradykinin 1 receptor (B1R) of the rat (Rattus norvegicus, UniProt P97583); test: Functional investigation on the rat bradykinin 1 receptor (B1R), Ca2+ FLIPR assay in CHO K1 rB1R cells; format: cell-based; conditions: B1R antagonism rat; test substance 10 μM; Ca2+ FLIPR, CHO K1 rB1R cells
T2 construct: expressed in transfected cells; host or cells: CHO K1 cells
T2 sequence (P97583 1-337): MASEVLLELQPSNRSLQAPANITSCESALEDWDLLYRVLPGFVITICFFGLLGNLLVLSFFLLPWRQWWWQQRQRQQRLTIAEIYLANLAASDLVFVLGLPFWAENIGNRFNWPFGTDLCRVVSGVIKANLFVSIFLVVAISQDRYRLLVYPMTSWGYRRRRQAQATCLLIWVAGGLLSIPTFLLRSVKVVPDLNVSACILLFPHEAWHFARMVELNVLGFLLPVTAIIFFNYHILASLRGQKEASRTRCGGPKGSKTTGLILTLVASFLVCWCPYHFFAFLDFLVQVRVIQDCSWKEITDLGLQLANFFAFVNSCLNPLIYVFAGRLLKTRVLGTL
Outline: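 Fluo-4 Ca2+ readout, peak fluorescence. Stable CHO K1 transfectants; compound pre-incubated 10-20 min, then EC80 agonist—Lys-Des-Arg9-BK for hB1R, Des-Arg9-BK for rB1R. % inhibition vs maximal inhibition; IC50 from multiple concentrations, duplicate/triplicate, ≥2 independent runs.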

T1 sequence (P35372 whole entry): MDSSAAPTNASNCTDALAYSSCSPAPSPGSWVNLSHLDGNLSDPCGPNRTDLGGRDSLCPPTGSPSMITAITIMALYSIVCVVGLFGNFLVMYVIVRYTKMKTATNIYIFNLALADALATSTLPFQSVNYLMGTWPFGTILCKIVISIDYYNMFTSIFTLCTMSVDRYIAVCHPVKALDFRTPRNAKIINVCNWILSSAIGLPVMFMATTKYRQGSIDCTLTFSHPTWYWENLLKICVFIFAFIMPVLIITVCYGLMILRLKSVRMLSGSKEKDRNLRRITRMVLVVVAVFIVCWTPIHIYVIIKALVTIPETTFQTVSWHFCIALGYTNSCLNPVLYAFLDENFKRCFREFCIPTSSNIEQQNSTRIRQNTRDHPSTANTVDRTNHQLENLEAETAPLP

Row | Compound | μ (binding on the μ opioid receptor, % inhibition) (human μ opiate receptor) | B1R Ant. r [10 μM] % Inhibition [1]
1 | COc1cc(C)c(S(=O)(=O)N(C)CCOCC(=O)NCCC2CCC(C(c3ccc(Cl)cc3)N(C)C)CC2)c(C)c1C (stereo not drawn) [Example 317] | 62% | 18%
2 | CN(C)C(c1cccs1)C1CCC(NC(=O)COCCN2CCN(S(=O)(=O)c3ccccc3)CC2)CC1 (stereo not drawn) [Example 341] | 64% | 18%
3 | COc1ccc(S(=O)(=O)N2CCCC2COCC(=O)NCCC2CCC(C(c3ccc(Cl)cc3)N(C)C)CC2)cc1 (stereo not drawn) [Example 346] | 63% | 45%
4 | CN(C)C(c1ccc(Cl)cc1)C1CCC(CCNC(=O)COCCN(C)S(=O)(=O)c2ccc(Cl)cc2Cl)CC1 (stereo not drawn) [Example 291] | 65% | 36%
5 | CN(C)C(c1cccc(F)c1)C1CCC(CNC(=O)COCCC2CCN(S(=O)(=O)c3ccccc3)CC2)CC1 (stereo not drawn) [Example 333] | 65% | 15%
6 | CN(C)C(c1cccc(F)c1)C1CCC(CNC(=O)COC2CCCN(S(=O)(=O)c3ccccc3)C2)CC1 (stereo not drawn) [Example 309] | 69% | −2%
7 | COc1ccc(S(=O)(=O)N2CCCCC2COCC(=O)NCC2CCC(C(c3ccc(F)cc3)N(C)C)CC2)cc1 (stereo not drawn) [Example 345] | 64% | 77%
8 | CN(C)C(c1ccc(F)cc1)C1CCC(NC(=O)COC2CCN(S(=O)(=O)c3ccc(Cl)cc3Cl)C2)CC1 (stereo not drawn) [Example 290] | 67% | 37%
9 | Cc1ccc(S(=O)(=O)N(C)CCOCC(=O)NCCC2CCC(C(c3ccc(Cl)cc3)N(C)C)CC2)cc1 (stereo not drawn) [Example 306] | 60% | 14%
10 | Cc1ccc(S(=O)(=O)N2CCC(OCC(=O)NCC3CCC(C(c4ccc(Cl)cc4)N(C)C)CC3)C2)cc1 (stereo not drawn) [Example 304] | 64% | 19%
11 | CN(C)C(c1cccc(F)c1)C1CCC(NC(=O)COC2CCN(S(=O)(=O)c3ccccc3)CC2)CC1 (stereo not drawn) [Example 335] | 58% | 2%
12 | CN(C)C(c1ccc(Cl)cc1)C1CCC(CCNC(=O)COCCN(C)S(=O)(=O)c2cccc(C(F)(F)F)c2)CC1 (stereo not drawn) [Example 289] | 67% | 13%
13 | COc1cc(C)c(S(=O)(=O)N2CCC(CCOCC(=O)NCC3CCC(C(c4cccc(F)c4)N(C)C)CC3)CC2)c(C)c1C (stereo not drawn) [Example 319] | 71% | 11%
14 | CN(C)C(c1ccc(F)cc1)C1CCC(NC(=O)COCCN(C)S(=O)(=O)c2ccc(Cl)cc2Cl)CC1 (stereo not drawn) [Example 356] | 55% | 43%
15 | COc1ccc(S(=O)(=O)N2CCCCC2CCOCC(=O)NCC2CCC(C(c3ccc(F)cc3)N(C)C)CC2)cc1 (stereo not drawn) [Example 350] | 61% | 35%
16 | COc1cc(C)c(S(=O)(=O)N2CCC(OCC(=O)NC3CCC(C(c4cccc(F)c4)N(C)C)CC3)CC2)c(C)c1C (stereo not drawn) [Example 286] | 76% | −2%
17 | COc1ccc(S(=O)(=O)N2CCCCC2COCC(=O)NCC2CCC(C(c3cccc(F)c3)N(C)C)CC2)cc1OC (stereo not drawn) [Example 329] | 66% | 9%
18 | COc1ccc(S(=O)(=O)N(C)CCOCC(=O)NCC2CCC(C(c3cccc(F)c3)N(C)C)CC2)cc1 (stereo not drawn) [Example 340] | 69% | 23%
19 | CN(C)C(c1cccc(F)c1)C1CCC(CNC(=O)COCCN(Cc2ccccc2)S(=O)(=O)c2ccccc2)CC1 (stereo not drawn) [Example 296] | 64% | 24%
20 | COc1ccc(S(=O)(=O)N2CCCCC2COCC(=O)NCC2CCC(C(c3ccc(Cl)cc3)N(C)C)CC2)cc1 (stereo not drawn) [Example 321] | 70% | 77%
21 | CN(C)C(c1cccc(F)c1)C1CCC(CCNC(=O)COCCN(Cc2ccccc2)S(=O)(=O)c2ccccc2)CC1 (stereo not drawn) [Example 278] | 77% | 7%

Row | Compound | μ (binding on the μ opioid receptor, % inhibition) (human μ opiate receptor) | B1R Ant. r [10 μM] % Inhibition [1]
22 | COc1ccc(S(=O)(=O)N(C)CCOCC(=O)NCCC2CCC(C(c3cccc(F)c3)N(C)C)CC2)cc1 (stereo not drawn) [Example 292] | 74% | 34%
23 | CN(C)C(c1ccc(Cl)cc1)C1CCC(CCNC(=O)COCCN(C)S(=O)(=O)c2ccc(Cl)cc2)CC1 (stereo not drawn) [Example 347] | 63% | 56%
24 | COc1ccc(S(=O)(=O)N2CCCCC2CCOCC(=O)NCC2CCC(C(c3ccc(Cl)cc3)N(C)C)CC2)cc1 (stereo not drawn) [Example 312] | 61% | 31%
25 | COc1ccc(S(=O)(=O)N2CCCCC2COCC(=O)NCCC2CCC(C(c3ccc(F)cc3)N(C)C)CC2)cc1 (stereo not drawn) [Example 349] | 66% | 77%
26 | COc1ccc(S(=O)(=O)N(C)CCOCC(=O)NCC2CCC(C(c3ccc(Cl)cc3)N(C)C)CC2)cc1 (stereo not drawn) [Example 324] | 62% | 48%
27 | COc1cc(C)c(S(=O)(=O)N2CCC(OCC(=O)NCC3CCC(C(c4cccc(F)c4)N(C)C)CC3)CC2)c(C)c1C (stereo not drawn) [Example 287] | 71% | −1%
28 | CN(C)C(c1cccc(F)c1)C1CCC(NC(=O)COC2CCN(S(=O)(=O)c3ccc(Cl)cc3Cl)C2)CC1 (stereo not drawn) [Example 283] | 74% | 24%
29 | CN(C)C(c1ccc(Cl)cc1)C1CCC(CNC(=O)COC2CCN(S(=O)(=O)c3ccccc3)C2)CC1 (stereo not drawn) [Example 299] | 63% | −13%
30 | CN(C)C(c1ccc(Cl)cc1)C1CCC(CNC(=O)COC2CCCN(S(=O)(=O)c3ccccc3)C2)CC1 (stereo not drawn) [Example 301] | 69% | 18%
31 | COc1ccc(S(=O)(=O)N2Cc3ccccc3CC2COCC(=O)NCC2CCC(C(c3ccc(F)cc3)N(C)C)CC2)cc1 (stereo not drawn) [Example 288] | 65% | 20%
32 | CN(C)C(c1ccc(Cl)cc1)C1CCC(CNC(=O)COC2CCN(S(=O)(=O)c3cccc(C(F)(F)F)c3)C2)CC1 (stereo not drawn) [Example 331] | 61% | 44%
33 | CN(C)C(c1cccc(F)c1)C1CCC(NC(=O)COCCN(C)S(=O)(=O)c2cccc(C(F)(F)F)c2)CC1 (stereo not drawn) [Example 297] | 74% | 16%
34 | CN(C)C(c1ccc(Cl)cc1)C1CCC(CNC(=O)COCCN(C)S(=O)(=O)c2c(Cl)cc(Cl)cc2Cl)CC1 (stereo not drawn) [Example 318] | 65% | 3%
35 | COc1ccc(S(=O)(=O)N2CCCCC2COCC(=O)NC2CCC(C(c3cccc(F)c3)N(C)C)CC2)cc1OC (stereo not drawn) [Example 352] | 65% | −13%
36 | COc1ccc(S(=O)(=O)N(C)CCOCC(=O)NCCC2CCC(C(c3ccc(Cl)cc3)N(C)C)CC2)cc1OC (stereo not drawn) [Example 339] | 63% | 31%
37 | COc1cc(C)c(S(=O)(=O)N2CCC(OCC(=O)NCCC3CCC(C(c4cccc(F)c4)N(C)C)CC3)C2)c(C)c1 (stereo not drawn) [Example 307] | 73% | 94%
38 | CCN(CCOCC(=O)NCC1CCC(C(c2ccc(Cl)cc2)N(C)C)CC1)S(=O)(=O)c1c(C)cc(OC)c(C)c1C (stereo not drawn) [Example 310] | 61% | 33%
39 | COc1ccc(S(=O)(=O)N2CCC(OCC(=O)NCCC3CCC(C(c4ccc(Cl)cc4)N(C)C)CC3)C2)cc1OC (stereo not drawn) [Example 338] | 69% | 27%
40 | CN(C)C(c1cccc(F)c1)C1CCC(CNC(=O)COCCN(C)S(=O)(=O)c2ccc(OC(F)(F)F)cc2)CC1 (stereo not drawn) [Example 303] | 66% | 29%
41 | CN(C)C(c1ccc(F)cc1)C1CCC(NC(=O)COCCN(C)S(=O)(=O)c2ccc(F)cc2)CC1 (stereo not drawn) [Example 357] | 57% | 27%
42 | Cc1ccc(S(=O)(=O)N2CCC(OCC(=O)NCCC3CCC(C(c4ccc(Cl)cc4)N(C)C)CC3)C2)cc1 (stereo not drawn) [Example 305] | 63% | 29%
